Measured values published in ChEMBL document CHEMBL4376865, “Discovery and Characterization of 1H-1,2,3-Triazole Derivatives as Novel Prostanoid EP4 Receptor Antagonists for Cancer Immunotherapy” (J Med Chem, 2020).

Legend:
CYP2E1 = CYP2E1 (Homo sapiens, UniProt P05181); assay: Inhibition of CYP2E1 in human liver microsomes at 20 uM using chlorzoxazone as substrate incubated for 60 mins by HPLC analysis relative to control; assay type: ADME; conditions: probe chlorzoxazone
CYP2D6 = CYP2D6 (Homo sapiens, UniProt P10635); assay: Inhibition of CYP2D6 in human liver microsomes at 20 uM using dextromethorphan as substrate incubated for 60 mins by HPLC analysis relative to control; assay type: ADME; conditions: probe dextromethorphan
[1] = molecular target: Prostaglandin E2 receptor EP4 subtype (Mus musculus, UniProt P32240); assay: Antagonist activity at mouse EP4 expressed in CHO cells coexpressing G16-alpha assessed as intracellular calcium flux preincubated for 15 mins followed by addition of PGE2 by calcium flux assay; assay type: functional, cell-based
[2] = molecular target: T1, Prostaglandin E2 receptor EP1 subtype (Homo sapiens, UniProt P34995); assay: Antagonist activity at human EP1 expressed in CHO cells coexpressing G16-alpha assessed as intracellular calcium flux preincubated for 15 mins followed by addition of PGE2 by calcium flux assay; assay type: functional, cell-based
T1 sequence (P34995 whole entry): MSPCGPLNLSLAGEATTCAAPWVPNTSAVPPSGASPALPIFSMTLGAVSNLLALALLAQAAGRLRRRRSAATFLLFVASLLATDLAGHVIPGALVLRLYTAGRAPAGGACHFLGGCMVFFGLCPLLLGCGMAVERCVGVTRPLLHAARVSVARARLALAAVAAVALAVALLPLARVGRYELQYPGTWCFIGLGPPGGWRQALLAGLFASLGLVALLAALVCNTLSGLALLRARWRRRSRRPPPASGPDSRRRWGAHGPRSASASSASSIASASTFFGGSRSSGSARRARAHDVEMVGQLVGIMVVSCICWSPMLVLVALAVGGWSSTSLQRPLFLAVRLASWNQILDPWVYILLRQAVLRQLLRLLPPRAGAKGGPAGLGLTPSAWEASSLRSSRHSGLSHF

[3] = Metabolic stability in human liver microsomes assessed as compound remaining at 10 uM incubated for 1 hr
[4] = Metabolic stability in CD1 mouse liver microsomes assessed as compound remaining at 10 uM incubated for 1 hr
CYP1A2 = molecular target: T2, CYP1A2 (Homo sapiens, UniProt P05177); assay: Inhibition of CYP1A2 in human liver microsomes at 20 uM using phenacetin as substrate incubated for 30 mins by HPLC analysis relative to control; assay type: ADME; conditions: probe phenacetin
T2 sequence (P05177 whole entry): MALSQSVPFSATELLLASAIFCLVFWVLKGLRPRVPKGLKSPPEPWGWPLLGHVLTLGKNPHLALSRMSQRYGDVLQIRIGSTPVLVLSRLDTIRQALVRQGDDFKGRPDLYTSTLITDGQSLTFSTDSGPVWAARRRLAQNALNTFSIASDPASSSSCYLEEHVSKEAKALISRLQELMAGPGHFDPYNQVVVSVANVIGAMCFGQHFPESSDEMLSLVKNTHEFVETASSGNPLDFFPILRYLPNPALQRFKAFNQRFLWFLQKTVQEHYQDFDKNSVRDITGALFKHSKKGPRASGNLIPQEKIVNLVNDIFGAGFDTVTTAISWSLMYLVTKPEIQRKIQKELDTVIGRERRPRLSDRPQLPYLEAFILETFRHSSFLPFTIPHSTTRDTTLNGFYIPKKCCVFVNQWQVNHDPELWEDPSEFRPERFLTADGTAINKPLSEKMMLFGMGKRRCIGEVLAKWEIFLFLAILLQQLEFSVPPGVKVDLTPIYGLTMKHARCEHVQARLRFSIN

CYP2B6 = molecular target: T3, CYP2B6 (Homo sapiens, UniProt P20813); assay: Inhibition of CYP2B6 in human liver microsomes at 20 uM incubated for 60 mins by HPLC analysis relative to control; assay type: ADME
T3 sequence (P20813 whole entry): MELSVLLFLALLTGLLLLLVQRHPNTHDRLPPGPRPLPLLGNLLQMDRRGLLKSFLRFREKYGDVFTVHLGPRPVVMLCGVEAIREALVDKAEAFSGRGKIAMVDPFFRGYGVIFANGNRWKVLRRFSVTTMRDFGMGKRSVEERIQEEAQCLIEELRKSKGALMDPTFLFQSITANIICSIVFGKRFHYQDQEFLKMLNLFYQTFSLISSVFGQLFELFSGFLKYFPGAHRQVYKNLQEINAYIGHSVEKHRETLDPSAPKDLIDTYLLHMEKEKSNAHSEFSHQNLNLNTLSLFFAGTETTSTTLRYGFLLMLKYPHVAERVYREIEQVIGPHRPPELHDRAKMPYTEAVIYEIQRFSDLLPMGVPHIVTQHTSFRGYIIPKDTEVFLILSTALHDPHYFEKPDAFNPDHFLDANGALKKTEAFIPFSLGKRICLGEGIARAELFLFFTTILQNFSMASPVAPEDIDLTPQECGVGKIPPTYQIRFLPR

CYP2C9 = CYP2C9 (Homo sapiens, UniProt P11712); assay: Inhibition of CYP2C9 in human liver microsomes at 20 uM using tolbutamide as substrate incubated for 60 mins by HPLC analysis relative to control; assay type: ADME; conditions: probe tolbutamide
Cytochrome P450 3A4 = Cytochrome P450 3A4 (Homo sapiens, UniProt P08684); assay: Inhibition of CYP3A4 in human liver microsomes at 20 uM using testosterone as substrate incubated for 60 mins by HPLC analysis; assay type: ADME; conditions: 1 h
[5] = Volume of distribution at steady state in BALB/c mouse at 1 mg/kg, iv measured upto 24 hrs by LC-MS/MS analysis; conditions: in vivo
[6] = Apparent volume of distribution in BALB/c mouse at 1 mg/kg, iv measured upto 24 hrs by LC-MS/MS analysis; conditions: in vivo
[7] = Clearance in BALB/c mouse at 1 mg/kg, iv measured upto 24 hrs by LC-MS/MS analysis; conditions: in vivo
[8] = Half life in BALB/c mouse at 1 mg/kg, iv measured upto 24 hrs by LC-MS/MS analysis; conditions: in vivo
[9] = Half life in BALB/c mouse at 5 mg/kg, po measured upto 24 hrs by LC-MS/MS analysis; conditions: in vivo
[10] = molecular target: Prostaglandin E2 receptor EP4 subtype (Homo sapiens, UniProt P35408)
Description: Antagonist activity at human EP4 expressed in CHO cells coexpressing G16-alpha assessed as intracellular calcium flux preincubated for 15 mins followed by addition of PGE2 by calcium flux assay

[11] = molecular target: Prostaglandin E2 receptor EP2 subtype (Homo sapiens, UniProt P43116)
Description: Antagonist activity at human EP2 expressed in CHO cells coexpressing G16-alpha assessed as intracellular calcium flux preincubated for 15 mins followed by addition of PGE2 by calcium flux assay

[12] = molecular target: T4, Prostaglandin E2 receptor EP3 subtype (Homo sapiens, UniProt P43115)
T4 sequence (P43115 whole entry): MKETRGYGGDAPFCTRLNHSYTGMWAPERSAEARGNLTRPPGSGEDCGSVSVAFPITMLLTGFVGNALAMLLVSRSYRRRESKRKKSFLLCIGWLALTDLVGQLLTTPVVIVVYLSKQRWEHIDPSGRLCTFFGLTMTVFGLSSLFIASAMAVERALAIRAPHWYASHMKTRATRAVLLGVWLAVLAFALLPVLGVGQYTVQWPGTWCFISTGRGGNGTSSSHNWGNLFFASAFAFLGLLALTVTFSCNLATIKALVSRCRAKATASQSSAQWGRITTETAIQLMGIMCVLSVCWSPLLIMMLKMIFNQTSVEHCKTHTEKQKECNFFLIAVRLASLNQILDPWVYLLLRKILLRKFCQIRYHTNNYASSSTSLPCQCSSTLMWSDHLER
Description: Antagonist activity at human EP3 expressed in CHO cells coexpressing G16-alpha assessed as intracellular calcium flux preincubated for 15 mins followed by addition of PGE2 by calcium flux assay

in vivo [13] = conditions: BALB/c, mouse, iv, 1 mg/kg
in vivo [14] = conditions: BALB/c, mouse, iv, 1 mg/kg; remark: listed apart in the source
in vivo [15] = conditions: BALB/c, mouse, po, 5 mg/kg
Description: Cmax in BALB/c mouse at 5 mg/kg, po measured upto 24 hrs by LC-MS/MS analysis

in vivo [16] = conditions: BALB/c, mouse, po, 5 mg/kg; remark: listed apart in the source
Description: AUC (0 to infinity) in BALB/c mouse at 5 mg/kg, po measured upto 24 hrs by LC-MS/MS analysis

in vivo [17] = conditions: BALB/c, mouse, po, 5 mg/kg; remark: listed apart in the source
Description: Oral bioavailability in BALB/c mouse at 5 mg/kg measured upto 24 hrs by LC-MS/MS analysis

in vitro [18] = conditions: human, liver microsomes
in vitro [19] = conditions: human, liver microsomes; remark: listed apart in the source
in vitro [20] = conditions: CD1, mouse, liver microsomes
in vitro [21] = conditions: CD1, mouse, liver microsomes; remark: listed apart in the source

Cytochrome P450 3A4, sequence (P08684 whole entry): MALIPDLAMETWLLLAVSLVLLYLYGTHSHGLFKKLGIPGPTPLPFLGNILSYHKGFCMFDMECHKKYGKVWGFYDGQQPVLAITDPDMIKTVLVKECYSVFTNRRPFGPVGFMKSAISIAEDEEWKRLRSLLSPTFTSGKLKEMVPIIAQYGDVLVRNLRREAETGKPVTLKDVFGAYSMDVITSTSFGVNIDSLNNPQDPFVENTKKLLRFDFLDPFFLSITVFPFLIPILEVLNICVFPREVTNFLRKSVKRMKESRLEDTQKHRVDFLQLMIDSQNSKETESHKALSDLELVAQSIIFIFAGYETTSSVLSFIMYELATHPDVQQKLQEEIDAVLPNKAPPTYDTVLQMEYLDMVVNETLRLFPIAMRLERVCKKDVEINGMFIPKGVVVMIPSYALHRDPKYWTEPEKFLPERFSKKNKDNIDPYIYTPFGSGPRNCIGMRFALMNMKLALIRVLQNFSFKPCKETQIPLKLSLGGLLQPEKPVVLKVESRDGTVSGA
Prostaglandin E2 receptor EP4 subtype (Homo sapiens, UniProt P35408), sequence (P35408 whole entry): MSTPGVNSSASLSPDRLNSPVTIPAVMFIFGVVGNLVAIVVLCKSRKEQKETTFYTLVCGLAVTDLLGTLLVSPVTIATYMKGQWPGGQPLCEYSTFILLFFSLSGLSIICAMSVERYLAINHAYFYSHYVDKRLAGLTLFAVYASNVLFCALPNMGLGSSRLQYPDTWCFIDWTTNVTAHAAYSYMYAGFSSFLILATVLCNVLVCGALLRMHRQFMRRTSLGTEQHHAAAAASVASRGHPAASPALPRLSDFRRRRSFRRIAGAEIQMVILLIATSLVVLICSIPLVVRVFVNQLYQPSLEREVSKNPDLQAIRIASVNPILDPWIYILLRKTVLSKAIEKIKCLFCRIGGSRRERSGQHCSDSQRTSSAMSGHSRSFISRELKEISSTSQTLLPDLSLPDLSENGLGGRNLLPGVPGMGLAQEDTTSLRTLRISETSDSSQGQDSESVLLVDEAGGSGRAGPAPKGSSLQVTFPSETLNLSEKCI
CYP2C9, sequence (P11712 whole entry): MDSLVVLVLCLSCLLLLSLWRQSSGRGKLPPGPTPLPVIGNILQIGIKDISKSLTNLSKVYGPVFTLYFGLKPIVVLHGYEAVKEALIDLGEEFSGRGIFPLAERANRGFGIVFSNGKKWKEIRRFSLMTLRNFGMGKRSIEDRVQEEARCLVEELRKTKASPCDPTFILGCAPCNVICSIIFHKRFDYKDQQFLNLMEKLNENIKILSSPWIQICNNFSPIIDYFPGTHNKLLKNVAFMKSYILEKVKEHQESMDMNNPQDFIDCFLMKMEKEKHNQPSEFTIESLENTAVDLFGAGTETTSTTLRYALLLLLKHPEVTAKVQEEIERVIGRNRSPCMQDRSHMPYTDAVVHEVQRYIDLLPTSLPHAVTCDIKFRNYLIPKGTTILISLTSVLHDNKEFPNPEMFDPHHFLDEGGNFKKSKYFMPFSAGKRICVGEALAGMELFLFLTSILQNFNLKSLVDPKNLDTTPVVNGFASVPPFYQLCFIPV
Prostaglandin E2 receptor EP4 subtype (Mus musculus, UniProt P32240), sequence (P32240 whole entry): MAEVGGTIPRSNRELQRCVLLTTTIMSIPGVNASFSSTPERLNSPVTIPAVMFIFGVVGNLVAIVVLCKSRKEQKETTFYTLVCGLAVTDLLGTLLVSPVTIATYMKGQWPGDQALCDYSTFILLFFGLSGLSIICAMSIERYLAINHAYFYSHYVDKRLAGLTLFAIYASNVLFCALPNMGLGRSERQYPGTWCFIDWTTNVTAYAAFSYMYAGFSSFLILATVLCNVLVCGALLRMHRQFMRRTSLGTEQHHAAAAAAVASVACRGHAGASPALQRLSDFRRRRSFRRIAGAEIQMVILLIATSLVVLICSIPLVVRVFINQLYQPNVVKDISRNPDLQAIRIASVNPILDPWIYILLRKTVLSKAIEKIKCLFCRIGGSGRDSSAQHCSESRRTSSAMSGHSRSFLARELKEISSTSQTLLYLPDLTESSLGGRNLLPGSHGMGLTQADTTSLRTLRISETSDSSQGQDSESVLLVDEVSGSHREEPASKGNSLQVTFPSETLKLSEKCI
Prostaglandin E2 receptor EP2 subtype, sequence (P43116 whole entry): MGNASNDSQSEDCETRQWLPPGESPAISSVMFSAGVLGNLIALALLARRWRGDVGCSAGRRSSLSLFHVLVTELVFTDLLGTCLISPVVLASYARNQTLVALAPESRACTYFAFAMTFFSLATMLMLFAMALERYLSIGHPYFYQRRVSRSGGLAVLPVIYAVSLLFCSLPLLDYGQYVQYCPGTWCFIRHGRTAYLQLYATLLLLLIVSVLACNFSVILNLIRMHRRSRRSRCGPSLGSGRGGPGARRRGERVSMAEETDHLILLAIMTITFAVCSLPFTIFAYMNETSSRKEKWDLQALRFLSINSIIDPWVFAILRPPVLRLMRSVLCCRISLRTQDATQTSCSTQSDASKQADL
CYP2D6, sequence (P10635 whole entry): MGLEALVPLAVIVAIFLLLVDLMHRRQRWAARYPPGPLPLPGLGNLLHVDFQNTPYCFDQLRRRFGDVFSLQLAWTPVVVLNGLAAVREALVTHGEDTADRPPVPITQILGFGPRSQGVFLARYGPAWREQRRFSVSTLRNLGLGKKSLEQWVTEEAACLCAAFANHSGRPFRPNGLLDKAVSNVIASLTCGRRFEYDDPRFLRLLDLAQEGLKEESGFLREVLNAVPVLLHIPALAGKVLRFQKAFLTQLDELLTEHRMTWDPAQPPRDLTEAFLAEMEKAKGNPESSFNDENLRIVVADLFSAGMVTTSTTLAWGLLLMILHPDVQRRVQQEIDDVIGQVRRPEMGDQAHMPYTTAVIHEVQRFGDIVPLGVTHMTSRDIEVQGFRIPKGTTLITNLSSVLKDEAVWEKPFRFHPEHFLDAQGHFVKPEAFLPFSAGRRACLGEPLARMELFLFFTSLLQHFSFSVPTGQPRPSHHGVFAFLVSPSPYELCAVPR
CYP2E1, sequence (P05181 whole entry): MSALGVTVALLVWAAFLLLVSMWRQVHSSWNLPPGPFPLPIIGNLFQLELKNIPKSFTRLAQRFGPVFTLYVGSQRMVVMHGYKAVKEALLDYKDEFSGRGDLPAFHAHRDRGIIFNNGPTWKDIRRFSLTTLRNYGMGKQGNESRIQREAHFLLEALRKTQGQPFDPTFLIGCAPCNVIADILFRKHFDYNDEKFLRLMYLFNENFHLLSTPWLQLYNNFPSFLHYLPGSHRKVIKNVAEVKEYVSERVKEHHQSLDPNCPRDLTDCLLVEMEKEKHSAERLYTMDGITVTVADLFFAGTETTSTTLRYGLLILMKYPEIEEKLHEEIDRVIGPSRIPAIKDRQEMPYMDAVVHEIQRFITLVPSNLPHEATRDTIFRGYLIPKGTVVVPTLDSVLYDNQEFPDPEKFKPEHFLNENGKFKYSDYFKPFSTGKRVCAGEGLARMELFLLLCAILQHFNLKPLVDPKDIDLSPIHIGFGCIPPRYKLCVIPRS

C[C@H](NC(=O)c1c(-c2ccsc2)nnn1Cc1ccc(C(F)(F)F)cc1)c1ccc(C(=O)O)cc1
inhibition at 1 h, 20 µM (CYP2E1): 63%
inhibition at 1 h, 20 µM (CYP2D6): 25%
IC50 [1]: 27.5 nM
IC50 [2]: > 10000 nM
remaining at 1 h, 10 µM [3]: 106%
remaining at 1 h, 10 µM [4]: 75.5%
inhibition at 0.5 h, 20 µM (CYP1A2): 21%
inhibition at 1 h, 20 µM (CYP2B6): 28%
inhibition at 1 h, 20 µM (CYP2C9): 48%
inhibition (INH) (Cytochrome P450 3A4): Not Active
Vd at 24 h [5]: 4 L/kg
Vd at 24 h [6]: 14.5 L/kg
clearance at 24 h [7]: 50 mL/min/kg
half-life at 24 h [8]: 3.3 h
half-life at 24 h [9]: 4.6 h
IC50 [10]: 12.9 nM
IC50 [11]: > 10000 nM
IC50 [12]: > 10000 nM
Cmax at 24 h (in vivo [13]): 808 ng/mL
AUC(0-inf) at 24 h (in vivo [14]): 332 ng·h/mL
Cmax at 24 h (in vivo [15]): 365 ng/mL
AUC(0-inf) at 24 h (in vivo [16]): 654 ng·h/mL
bioavailability at 24 h (in vivo [17]): 40.9%
half-life at 1 h, 10 µM (in vitro [18]): > 2.42 h
microsomal CLint at 1 h, 10 µM (in vitro [19]): < 9.6 µL/min/mg
half-life at 1 h, 10 µM (in vitro [20]): > 2.42 h
microsomal CLint at 1 h, 10 µM (in vitro [21]): < 9.6 µL/min/mg
